For eleven compounds, IC50 results are on record in US20220402916A1, “SMALL MOLECULE INHIBITORS OF KRAS G12C MUTANT” (Merck Sharp & Dohme Corp., priority 2019, published 2022).

One test deals with NCI-H358 cells. The test can be described thus: Cellular phospho-ERK assay. Type of test: cell-based. The conditions noted are these: NCI-H358 cells, 2 hour incubation, ratio of p-Erk vs total Erk, read-out: IC50. Put shortly:
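15,000 cells/well seeded overnight, then dose-response compound treatment for 2 h at 37 °C in RPMI medium. Lysed and read by AlphaLISA SureFire Ultra multiplex; p-ERK/total ERK ratio as readout, IC50 from 4-parameter logistic fit.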

Test [1] addresses T1, Biotinylated KRAS G12C protein (Homo sapiens, UniProt P01116, C118S/C51S/C80L/G12C).
T1 construct: 183 amino acids; biotin on K10
Nature of the test: SOS-catalyzed nucleotide exchange assay. The class given is biochemical. The conditions noted are these: apparent potency; preincubation time of 60 minutes prior to addition of SOS.

SMILES strings stand for the structures. Read-outs that look alike come from different tables or passages of the source.

T1 sequence (P01116 with tags, fused parts or gaps isoform P01116-2 G12C/C51S/C80L/C118S): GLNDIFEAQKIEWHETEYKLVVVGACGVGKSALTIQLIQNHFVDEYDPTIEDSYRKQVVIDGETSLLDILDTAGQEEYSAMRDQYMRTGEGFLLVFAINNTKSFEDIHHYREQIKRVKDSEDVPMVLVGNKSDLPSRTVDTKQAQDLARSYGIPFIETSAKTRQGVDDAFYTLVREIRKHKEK

In the case of `C=CC(=O)N1CCN(c2cc(C(=O)NC(C)CN3CCC(C)(O)C3)nc3c2CCN(c2cccc4cccc(C)c24)C3)C[C@@H]1CC#N` (single isomer, unassigned) [Compound 73, 4-((S)-4-acryloyl-3-(cyanomethyl)piperazin-1-yl)-N—((R or S)-1-((R or S)-3-hydroxy-3-methylpyrrolidin-1-yl)propan-2-yl)-7-(8-methylnaphthalen-1-yl)-5,6,7,8-tetrahydro-1,7-naphthyridine-2-carboxamide], the half-inhibitory concentration (IC50) with NCI-H358 cells stood at 0.257 µM; in test [1] it was 9.7 nM.

With `C=CC(=O)N1CCN(c2cc(C(=O)NCC3CCCNC3)nc3c2CCN(c2cccc4cccc(C)c24)C3)C[C@@H]1CC#N` (mixture of isomers) [Compound 106, 4-((S)-4-acryloyl-3-(cyanomethyl)piperazin-1-yl)-7-(8-methylnaphthalen-1-yl)-N-(((R)-piperidin-3-yl)methyl)-5,6,7,8-tetrahydro-1,7-naphthyridine-2-carboxamide, as a mixture with 4-((S)-4-acryloyl-3-(cyanomethyl)piperazin-1-yl)-7-(8-methylnaphthalen-1-yl)-N-(((S)-piperidin-3-yl)methyl)-5,6,7,8-tetrahydro-1,7-naphthyridine-2-carboxamide], the IC50 with NCI-H358 cells (Homo sapiens, NCI-H358, 2 h) stood at 5.24 µM; in test [1] it was 33 nM.

For `C=C(F)C(=O)N1CCN(c2cc(C(=O)N[C@H](C)CN(C)C)nc3c2CCN(c2cccc4cccc(C)c24)C3)C[C@@H]1CC#N` [Compound 78, 4-((S)-3-(cyanomethyl)-4-(2-fluoroacryloyl)piperazin-1-yl)-N-((R)-1-(dimethylamino)propan-2-yl)-7-(8-methylnaphthalen-1-yl)-5,6,7,8-tetrahydro-1,7-naphthyridine-2-carboxamide], the 50% inhibitory concentration (IC50) turned out to be 1.25 µM in the test on NCI-H358 cells (Homo sapiens, NCI-H358, 2 h) and 8.3 nM in test [1].

Regarding `C=CC(=O)N1CCN(c2cc(C(=O)NCC3CCCCN3)nc3c2CCN(c2cccc4cccc(C)c24)C3)C[C@@H]1CC#N` (mixture of isomers) [Compound 99, 4-((S)-4-acryloyl-3-(cyanomethyl)piperazin-1-yl)-7-(8-methylnaphthalen-1-yl)-N-(((R)-piperidin-2-yl)methyl)-5,6,7,8-tetrahydro-1,7-naphthyridine-2-carboxamide, as a mixture with 4-((S)-4-acryloyl-3-(cyanomethyl)piperazin-1-yl)-7-(8-methylnaphthalen-1-yl)-N-(((S)-piperidin-2-yl)methyl)-5,6,7,8-tetrahydro-1,7-naphthyridine-2-carboxamide], the half-maximal inhibitory concentration (IC50) was 1.74 µM in the test on NCI-H358 cells (Homo sapiens, NCI-H358, 2 h) and 8.3 nM in test [1].

For the compound `C=CC(=O)N1CCN(c2cc(C(=O)NC(C)CN3CCC(C)(O)C3)nc3c2CCN(c2cccc4cccc(C)c24)C3)C[C@@H]1CC#N` (single isomer, unassigned) [Compound 76, 4-((S)-4-acryloyl-3-(cyanomethyl)piperazin-1-yl)-N-((S or R)-1-((S or R)-3-hydroxy-3-methylpyrrolidin-1-yl)propan-2-yl)-7-(8-methylnaphthalen-1-yl)-5,6,7,8-tetrahydro-1,7-naphthyridine-2-carboxamide], the figures for the concentration for half-maximal inhibition (IC50) (with NCI-H358 cells; in test [1]) were 0.207 µM and 6.2 nM, respectively.

`C=CC(=O)N1CCN(c2cc(C(=O)NC[C@@H]3CCCN3)nc3c2CCN(c2cccc4cccc(C)c24)C3)C[C@@H]1CC#N` [Compound 97, 4-((S)-4-acryloyl-3-(cyanomethyl)piperazin-1-yl)-7-(8-methylnaphthalen-1-yl)-N-(((S)-pyrrolidin-2-yl)methyl)-5,6,7,8-tetrahydro-1,7-naphthyridine-2-carboxamide]: the IC50 came out at 2.48 µM with NCI-H358 cells (Homo sapiens, NCI-H358, 2 h) and 15 nM in test [1].

As to `C=CC(=O)N1CCN(c2cc(C(=O)N[C@H](C)CN3CC(C)(O)C3)nc3c2CCN(c2cccc4cccc(C)c24)C3)C[C@@H]1CC#N` [Compound 70, 4-((S)-4-acryloyl-3-(cyanomethyl)piperazin-1-yl)-N-((R)-1-(3-hydroxy-3-methylazetidin-1-yl)propan-2-yl)-7-(8-methylnaphthalen-1-yl)-5,6,7,8-tetrahydro-1,7-naphthyridine-2-carboxamide], the IC50 with NCI-H358 cells (Homo sapiens, NCI-H358, 2 h) stood at 0.057 µM; in test [1], 2.2 nM.

In the case of `C=CC(=O)N1CCN(c2cc(C(=O)N[C@H](C)CN(C)C)nc3c2CCN(c2cccc4cccc(C)c24)C3)C[C@@H]1CC#N` [Compound 65, 4-((S)-4-acryloyl-3-(cyanomethyl)piperazin-1-yl)-N-((R)-1-(dimethylamino)propan-2-yl)-7-(8-methylnaphthalen-1-yl)-5,6,7,8-tetrahydro-1,7-naphthyridine-2-carboxamide], the concentration for half-maximal inhibition (IC50) in the test on NCI-H358 cells (Homo sapiens, NCI-H358, 2 h) was determined as 0.016 µM; in test [1], 2.1 nM.

`C=C(F)C(=O)N1CCN(c2cc(C(=O)N[C@H](C)CN(C)C(C)C)nc3c2CCN(c2cccc4cccc(C)c24)C3)C[C@@H]1CC#N` [Compound 79, 4-((S)-3-(cyanomethyl)-4-(2-fluoroacryloyl)piperazin-1-yl)-N-((R)-1-(isopropyl(methyl)amino)propan-2-yl)-7-(8-methylnaphthalen-1-yl)-5,6,7,8-tetrahydro-1,7-naphthyridine-2-carboxamide]: the IC50 in the test with NCI-H358 cells (Homo sapiens, NCI-H358, 2 h) was determined as 1.28 µM; in test [1] it was 12 nM.

`C=CC(=O)N1CCN(c2cc(C(=O)NC(C)CN3CCC(F)(F)C3)nc3c2CCN(c2cccc4cccc(C)c24)C3)C[C@@H]1CC#N` (single isomer, unassigned) [Compound 71, 4-((S)-4-acryloyl-3-(cyanomethyl)piperazin-1-yl)-N—((R or S)-1-(3,3-difluoropyrrolidin-1-yl)propan-2-yl)-7-(8-methylnaphthalen-1-yl)-5,6,7,8-tetrahydro-1,7-naphthyridine-2-carboxamide]: the values for the half-inhibitory concentration (IC50) (in the test with NCI-H358 cells; in test [1]) were 5.55 µM and 32 nM, respectively.

Turning to `C=CC(=O)N1CCN(c2cc(C(=O)NCC3(N)CCCCC3)nc3c2CCN(c2cccc4cccc(C)c24)C3)C[C@@H]1CC#N` [Compound 89, (S)-4-(4-acryloyl-3-(cyanomethyl)piperazin-1-yl)-N-((1-aminocyclohexyl)methyl)-7-(8-methylnaphthalen-1-yl)-5,6,7,8-tetrahydro-1,7-naphthyridine-2-carboxamide], the half-maximal inhibitory concentration (IC50) with NCI-H358 cells (Homo sapiens, NCI-H358, 2 h) amounted to 5.68 µM; in test [1], 15 nM.

In general, IC50 refers to the concentration that inhibits the measured activity by half.
